Counter-ions that a name gives are not always drawn.
Assay: hygroscopicity by the micro balance method (Gravimetric Vapour Sorption System DVS-1)
Type: physicochemical
Details: FIG. 2 (A); temperature 25.1° C.
Description: Next, it will be illustrated that although Compound (IV) prepared according to the present invention is a mono lysine salt, it has excellent […] in a comparison with a dilysine salt. Note that, a dilysine salt can be prepared by the methods disclosed in Published Japanese Translation of a PCT Application No. 2003-520235. […] Note that, the measurement instrument used in the micro balance method was the following apparatus:
Gravimetric Vapour Sorption System (Model DVS-1 Surface Measurement System).

C[C@@H](c1nc(-c2ccc(C#N)cc2)cs1)[C@@](Cn1cncn1)(OCOP(=O)(O)O)c1ccc(F)cc1F [mono lysine salt]
relative humidity at which moisture absorption phenomenon was observed: 70 % RH
